Results on four compounds are retold here after patent US12459926B2, “THRβ receptor agonist compound and preparation method and use thereof” (Terns, Inc., priority 2018, dated 2025).

A value given as a limit tells only on which side of the number the result lay.

The target of one series is TRβ LBD (Homo sapiens, UniProt P10828). The settings on record: ratio of THRα to THRβ binding force.
Series [1] can be described thus: Pharmacokinetic evaluation in rats after intragastric infusion. The settings on record: male SD rats, 2 mg/kg single dose, plasma. The class given is in vivo.
Protocol: Rats were used as test animals. […] The pharmacokinetic behaviors of the compounds of the present invention in rats were studied, and the pharmaceutical metabolism characteristics thereof were evaluated. […] The non-compartment model method (NCA) was utilized to calculate the pharmacokinetic parameters, particularly as shown in Table 2 below.
Drug Preparation: a certain amount of the drug was taken and added into a 2% Klucel LF+0.1% Tween 80 aqueous solution, to prepare a clear solution or a uniform suspension.
Dosage: SD rats were fasted overnight and given the drug by intragastric infusion at an administrated dose of 2 mg/kg and an administrated volume of 10 mL/kg each.
The heparinized sample tubes were then stored at −20° C., and the rats were allowed to eat food 2 h after the dosage.
Determination of contents of the compounds to be tested in the plasma of rats after intragastric infusion of the drugs at different concentrations: the plasma samples were thawed at room temperature, 50 μL each was taken and added into 130 μL of an internal standard working solution (1000 ng/mL, acetonitrile, tolbutamide), and the mixture was whirled for about 1 min and then centrifugated at 4° C. and 13000 rpm for 10 min. 50 μL of the supernatant was taken and mixed with 100 μL of 50% acetonitrile water, and then introduced for LC/MS/MS analysis.

Chain of TRβ LBD (P10828 217-461 limits assumed, other chains not shown): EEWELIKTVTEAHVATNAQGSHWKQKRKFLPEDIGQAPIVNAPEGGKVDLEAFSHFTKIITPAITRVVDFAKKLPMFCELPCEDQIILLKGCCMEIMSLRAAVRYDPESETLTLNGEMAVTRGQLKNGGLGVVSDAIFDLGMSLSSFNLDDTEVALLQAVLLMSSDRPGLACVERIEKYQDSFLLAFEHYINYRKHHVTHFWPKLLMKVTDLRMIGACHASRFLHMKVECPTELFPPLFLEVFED
Chain of TRβ LBD (P28702 whole entry partner, other chains not shown, the tested form may be a part): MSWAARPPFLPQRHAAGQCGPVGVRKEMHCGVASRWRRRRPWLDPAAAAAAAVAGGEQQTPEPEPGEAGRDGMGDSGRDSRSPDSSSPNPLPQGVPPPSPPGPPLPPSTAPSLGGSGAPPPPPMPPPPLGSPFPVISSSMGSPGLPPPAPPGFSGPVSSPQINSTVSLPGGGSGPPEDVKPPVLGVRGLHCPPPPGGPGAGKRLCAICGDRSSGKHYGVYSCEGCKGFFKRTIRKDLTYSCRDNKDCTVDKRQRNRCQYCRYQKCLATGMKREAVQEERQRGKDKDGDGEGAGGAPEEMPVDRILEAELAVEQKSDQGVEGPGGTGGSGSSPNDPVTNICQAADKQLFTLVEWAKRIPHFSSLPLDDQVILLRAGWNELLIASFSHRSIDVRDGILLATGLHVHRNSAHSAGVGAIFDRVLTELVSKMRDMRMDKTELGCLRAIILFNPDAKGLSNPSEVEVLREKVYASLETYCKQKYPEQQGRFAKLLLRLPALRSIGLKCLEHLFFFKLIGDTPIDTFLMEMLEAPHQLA
Protocol for TRβ LBD: Main Experimental Material and Apparatus:
All compounds were dissolved in dimethyl sulfoxide to prepare a 10 mmol stock solution.
For long-term storage, compounds shall be placed into a refrigerator at −20° C.
3.1 Preparation of 1× Reaction Buffer

`N#Cc1nn(-c2cc(Cl)c(Oc3n[nH]c(=O)c4c3CCCC4)c(Cl)c2)c(=O)[nH]c1=O` [Embodiment 1, 2-(3,5-dichloro-4-((4-oxo-3,4,5,6,7,8-hexahydrophthalazin-1-yl)oxy)phenyl)-3,5-dioxo-2,3,4,5-tetrahydro-1,2,4-triazine-6-nitrile]: the “THRα/β selectivity (factor)” value at TRβ LBD was over 8.1 factor.

As for `CC1(C)CCc2c(Oc3c(Cl)cc(-n4nc(C#N)c(=O)[nH]c4=O)cc3Cl)n[nH]c(=O)c21` [Embodiment 4, 2-(3,5-dichloro-4-((7,7-dimethyl-1-oxo-2,5,6,7-tetrahydro-1H-cyclopenta[d]pyridazin-4-yl)oxy)phenyl)-3,5-dioxo-2,3,4,5-tetrahydro-1,2,4-triazine-6-carbonitrile], in series [1], the Curve area came out at 9242 ± 1245 ng·h/mL and the Time to peak came out at 5.33 ± 1.15 h. For the same compound, the half-life (usually the time needed for the level to fall by half in the phase considered) in series [1] (rat, po) was 5.14 ± 0.83 h.

For the compound `N#Cc1nn(-c2cc(Cl)c(Oc3n[nH]c(=O)c4ccccc34)c(Cl)c2)c(=O)[nH]c1=O` [Embodiment 9, 2-(3,5-dichloro-4-((4-oxo-3,4-dihydrophthalazin-1-yl)oxo)phenyl)-3,5-dioxo-2,3,4,5-tetrahydro-1,2,4-triazine-6-nitrile], the “THRα/β selectivity (factor)” value on TRβ LBD is listed as over 58.8 factor.

For the compound `N#Cc1nn(-c2cc(Cl)c(Oc3n[nH]c(=O)c4c(Cl)cccc34)c(Cl)c2)c(=O)[nH]c1=O` [Embodiment 10, 2-(3,5-dichloro-4-((5-chloro-4-oxo-3,4-dihydrophthalazin-1-yl)oxo)phenyl)-3,5-dioxo-2,3,4,5-tetrahydro-1,2,4-triazine-6-nitrile], the “THRα/β selectivity (factor)” value at TRβ LBD was over 6.80 factor.
